Experimental findings from patent US8809364B2, “Polycyclic aryl substituted triazoles and polycyclic heteroaryl substituted triazoles useful as axl inhibitors” (priority 2007, dated 2014) are described below.

For the assay, the target named is T1, Axl (Homo sapiens, UniProt P30530).
T1 construct: endogenous in cells; host or cells: HeLa cells
T1 sequence (P30530 26-894): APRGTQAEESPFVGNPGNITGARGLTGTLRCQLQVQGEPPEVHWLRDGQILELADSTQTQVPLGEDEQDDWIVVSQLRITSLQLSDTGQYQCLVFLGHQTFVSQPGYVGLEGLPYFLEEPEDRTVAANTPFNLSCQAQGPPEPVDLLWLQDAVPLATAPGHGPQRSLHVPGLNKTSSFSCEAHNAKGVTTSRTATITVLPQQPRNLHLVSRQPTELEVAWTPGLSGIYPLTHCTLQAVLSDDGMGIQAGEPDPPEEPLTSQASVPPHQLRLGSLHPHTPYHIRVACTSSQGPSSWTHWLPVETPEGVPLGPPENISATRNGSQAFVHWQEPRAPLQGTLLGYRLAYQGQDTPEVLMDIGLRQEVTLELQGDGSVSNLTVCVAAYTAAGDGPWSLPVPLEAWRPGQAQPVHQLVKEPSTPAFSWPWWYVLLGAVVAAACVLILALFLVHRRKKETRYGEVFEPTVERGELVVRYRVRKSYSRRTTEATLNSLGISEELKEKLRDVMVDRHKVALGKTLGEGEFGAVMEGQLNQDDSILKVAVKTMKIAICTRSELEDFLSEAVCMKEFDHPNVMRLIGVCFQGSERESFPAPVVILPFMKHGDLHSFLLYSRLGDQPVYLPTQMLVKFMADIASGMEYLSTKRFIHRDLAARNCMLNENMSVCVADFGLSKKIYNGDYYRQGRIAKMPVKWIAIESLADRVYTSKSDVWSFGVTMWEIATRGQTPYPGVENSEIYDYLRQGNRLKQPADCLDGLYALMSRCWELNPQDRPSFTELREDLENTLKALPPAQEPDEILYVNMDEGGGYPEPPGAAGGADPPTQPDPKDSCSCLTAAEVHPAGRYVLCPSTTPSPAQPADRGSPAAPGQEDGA
Description: Phospho-Akt In-Cell Western Assay (inhibition of Axl activity). The class given is cell-based. To be noted: Hela cells, Axl antibody cross-linking stimulation, phospho-Akt chemiluminescence normalized to cell number. Here is the method: The compounds of the invention were tested in the following assay for their ability to inhibit Axl activity.
Phospho-Akt In-Cell Western Assay
• Cell culture plate: 96 well assay plate (Corning 3610), white, clear bottom, tissue-culture treated. • Cells: Hela cells. • Starvation medium: For Axl stimulation: 0.5% FCS (fetal calf serum) in DMEM, plus Axl/Fc (extracellular domain of AXL fused to immunoglobulin Fc region) (R&D, 154-AL) 500 ng/mL. • For EGF (epidermal growth factor) stimulation: 0.5% FCS in DMEM (Dulbecco's modified Eagles medium). • Poly-L-Lysine 0.01% solution (the working solution): 10 μg/ml, dilute In PBS (phosphate buffered saline). • Axl antibody cross-linking: • 1st: Mouse anti-Axl (R&D, MAB154). • 2nd: Biotin-SP-conjugated AffiniPure goat anti-mouse IgG (H+L) (Jackson ImmunoResearch #115-065-003). • Fixing buffer: 4% formaldehyde in PBS. • Wash buffer: 0.1% TritonX-100 in PBS. • Quenching buffer: 3% H2O2, 0.1% Azide in wash buffer, Azide and hydrogen peroxide (H2O2) are added fresh. • Blocking buffer: 5% BSA in TBST (tris buffered saline plus 0.1% Tween 20). • Primary antibody: Rabbit anti-human Phospho-Akt antibody (Cell Signaling 9271): 1×250 diluted in blocking buffer. • Secondary antibody: HRP (horse radish peroxidase)-conjugated Goat anti-Rabbit secondary, stock solution: Jackson ImmunoResearch (Goat anti-Rabbit HRP, #111-035-144) 1:1 diluted in glycerol, store at −20° C. The working solution: 1×2000 dilution of stock in blocking buffer. • Chemiluminescent working solution (Pierce, 37030): SuperSignal ELISA (enzyme linked immunosorbant assay) Pico Chemiluminescent substrate. • Crystal Violet solution: Stock: 2.5% Crystal violet in methanol, filtered and kept at ambient temperature. The working solution: dilute the stock 1:20 with PBS immediately before use. • 10% SDS: working solution: 5% SDS (sodium dodecylsulfate), diluted in PBS Methods: Day 1:
A 96 well TC (tissue culture treated) plate was coated with 10 μg/mL poly-L-Lysine at 37° C. for 30 min, washed twice with PBS, and air-dried for 5 minutes before cells were added. Hela cells were seeded at 10,000 cells/well and the cells were starved in 100 μL starvation medium containing Axl/Fc for 24 hrs.
The cells were pre-treated with test compounds by adding 100 μL of 2× test compound to the starvation medium on the cells. The cells were incubated at 37° C. for 1 hr before stimulation.
The cells were stimulated by Axl-antibody cross-linking as follows: A 5×1^St/2nd Axl antibody mixture was made (37.5 μg/mL 1st/100 μg/mL 2nd) in starvation medium and nutated at 4° C. with thorough mixing for 1-2 hours for clustering. The resulting mix was warmed to 37° C. 50 μL of 5×Axl 1st/2nd of antibody cluster was added to the cells and the cells were incubated at 37° C. for 5 min.
After 5 minutes stimulation, the plate was flicked to remove medium and the plate was tapped onto paper towels. Formaldehyde (4.0% in PBS, 100 μL) was added to fix the cells and the cells were incubated at ambient temperature for 20 min without shaking.
The cells were washed with a plate washer buffer to remove the formaldehyde solution. The plate was flicked to removed excess wash buffer and tapped onto paper towels. Quenching buffer (100 μL) was added to each well and the cells were incubated at ambient temperature for 20 minutes without shaking.
The cells were washed with a plate washer buffer to remove the quenching buffer. Blocking buffer (100 μL) was added and the cells were incubated at ambient temperature for at least an hour with gentle shaking.
The cells were washed with a plate washer buffer and diluted primary antibody (50 μL) was added to each well (blocking buffer was added to the negative control wells instead). The plates were incubated overnight at 4° C. with gentle shaking.
The wash buffer was removed, diluted secondary antibody (100 μL) was added, and the cells were incubated at ambient temperature for 1 hour with gentle shaking. […]

The mark [1] stands for this setting: compounds of formula (Ia), Table 1.

Structures are written as SMILES.

Take `CON=C1CCCc2ncc(Nc3nc(N)n(-c4cc5c(nn4)-c4ccccc4CCC5)n3)cc2CC1` (racemic) [Compound 8, 1-(6,7-dihydro-5H-benzo[6,7]cyclohepta[1,2-c]pyridazin-3-yl)-N^3-(7-(methoxyimino)-5,6,7,8,9,10-hexahydrocycloocta[b]pyridin-3-yl)-1H-1,2,4-triazole-3,5-diamine]: under setting [1], the IC50 (as a rule, the concentration that gives 50% inhibition) fell in the range of 1 to 10 µM.

The compound `Nc1nc(Nc2ccc3c(c2)CCC(=O)NCC3)nn1-c1cc2c(nn1)-c1ccccc1CCC2` [Compound 1, 1-(6,7-dihydro-5H-benzo[6,7]cyclohepta[1,2-c]pyridazin-3-yl)-N^3-(4(1H)-oxo-2,3,5,6-tetrahydrobenzo[d]azocin-8-yl)-1H-1,2,4-triazole-3,5-diamine] yielded an IC50 under setting [1] of under 1 µM.

Consider `Nc1nc(Nc2ccc3c(c2)CCCN(C2CCCC2)CC3)nn1-c1cc2c(nn1)-c1ccccc1CCC2` [Compound 2, 1-(6,7-dihydro-5H-benzo[6,7]cyclohepta[1,2-c]pyridazin-3-yl)-N^3-(3-cyclopentyl-1,2,3,4,5,6-hexahydrobenzo[d]azocin-8-yl)-1H-1,2,4-triazole-3,5-diamine], for which, under setting [1], the IC50 is 1 to 10 µM.

Under setting [1], `Nc1nc(Nc2ccc3c(c2)CCN(C2CCCC2)CCC3)nn1-c1cc2c(nn1)-c1ccccc1CCC2` [Compound 3, 1-(6,7-dihydro-5H-benzo[6,7]cyclohepta[1,2-c]pyridazin-3-yl)-N^3-(3-cyclopentyl-1,2,3,4,5,6-hexahydrobenzo[d]azocin-9-yl)-1H-1,2,4-triazole-3,5-diamine] returned a half-inhibitory concentration (IC50) of under 1 µM.

In turn, `Nc1nc(Nc2ccc3c(c2)CC2CCC(C3)C2N2CCCC2)nn1-c1cc2c(nn1)-c1ccccc1CCC2` (centres unmarked) [Compound 4, 1-(6,7-dihydro-5H-benzo[6,7]cyclohepta[1,2-c]pyridazin-3-yl)-N^3-(7-pyrrolidin-1-yl-6,8-ethano-6,7,8,9-tetrahydro-5H-benzo[7]annulene-3-yl)-1H-1,2,4-triazole-3,5-diamine] had a half-inhibitory concentration (IC50) under setting [1] of under 1 µM.

In turn, `Nc1nc(Nc2ccc3c(c2)CC(N2CCCC2)CCCC3)nn1-c1cc2c(nn1)-c1ccccc1CCC2` (centres unmarked) [Compound 5, 1-(6,7-dihydro-5H-benzo[6,7]cyclohepta[1,2-c]pyridazin-3-yl)-N^3-(6-pyrrolidin-1-yl-5,6,7,8,9,10-hexahydrobenzo[8]annulene-3-yl)-1H-1,2,4-triazole-3,5-diamine] registered an IC50 under setting [1] of 1 to 10 µM.

Consider `Nc1nc(Nc2cnc3c(c2)CCC(=O)CCC3)nn1-c1cc2c(nn1)-c1ccccc1CCC2` [Compound 6, 1-(6,7-dihydro-5H-benzo[6,7]cyclohepta[1,2-c]pyridazin-3-yl)-N^3-(7-oxo-5,6,8,9,10-pentahydrocycloocta[b]pyridin-3-yl)-1H-1,2,4-triazole-3,5-diamine], for which, under setting [1], the IC50 was under 1 µM.

Regarding `Nc1nc(Nc2cnc3c(c2)CCC(N2CCCC2)CCC3)nn1-c1cc2c(nn1)-c1ccccc1CCC2` (centres unmarked) [Compound 7, 1-(6,7-dihydro-5H-benzo[6,7]cyclohepta[1,2-c]pyridazin-3-yl)-N^3-(7-(pyrrolidin-1-yl)-5,6,7,8,9,10-hexahydrocycloocta[b]pyridin-3-yl)-1H-1,2,4-triazole-3,5-diamine], the concentration for half-maximal inhibition (IC50) under setting [1] was under 1 µM.

For `Nc1nc(Nc2cnc3c(c2)CCC(O)CCC3)nn1-c1cc2c(nn1)-c1ccccc1CCC2` (centres unmarked) [Compound 9, 1-(6,7-dihydro-5H-benzo[6,7]cyclohepta[1,2-c]pyridazin-3-yl)-N^3-(7-hydroxy-5,6,7,8,9,10-hexahydrocycloocta[b]pyridin-3-yl)-1H-1,2,4-triazole-3,5-diamine], under setting [1], the IC50 is 1 to 10 µM.

Under setting [1], `Nc1nc(Nc2cnc3c(c2)CCC(=O)CCC3)nn1-c1cc(-c2ccncc2)c2c(n1)C1CCN2CC1` [Compound 10, 1-(1,4-ethano-8-pyridin-4-yl-1,2,3,4-tetrahydro-1,5-naphthyridin-6-yl)-N^3-(7-oxo-5,6,7,8,9,10-hexahydrocycloocta[b]pyridin-3-yl)-1H-1,2,4-triazole-3,5-diamine] had an IC50 of under 1 µM.

Take `Nc1nc(Nc2ccc3c(c2)C(=O)NCCCC3)nn1-c1cc2c(nn1)-c1ccccc1CCC2` [Compound 11, 1-(6,7-dihydro-5H-benzo[6,7]cyclohepta[1,2-c]pyridazin-3-yl)-N^3-(1(2H)-oxo-3,4,5,6-tetrahydrobenzo[c]azocin-9-yl)-1H-1,2,4-triazole-3,5-diamine]: the IC50 under setting [1] is 1 to 10 µM.

`Nc1nc(Nc2ccc3c(c2)CNCCCC3)nn1-c1cc2c(nn1)-c1ccccc1CCC2` [Compound 13, 1-(6,7-dihydro-5H-benzo[6,7]cyclohepta[1,2-c]pyridazin-3-yl)-N^3-(1,2,3,4,5,6-hexahydrobenzo[c]azocin-9-yl)-1H-1,2,4-triazole-3,5-diamine]: the IC50 under setting [1] is 1 to 10 µM.

On to `Nc1nc(Nc2ccc3c(c2)CCC2(CC3)OCCO2)nn1-c1ncnc2c1CCCCCC2` [Compound 14, 1-(5,6,7,8,9,10-hexahydrocycloocta[d]pyrimidin-4-yl)-N^3-(5,6,8,9-tetrahydrospiro[benzo[7]annulene-7,2′-[1,3]dioxolane]-3-yl)-1H-1,2,4-triazole-3,5-diamine], for which the IC50 under setting [1] fell in the range of 1 to 10 µM.

On to `Nc1nc(Nc2ccc3c(c2)C(=O)NCCCC3)n(-c2cc3c(nn2)-c2ccccc2CCC3)n1` [Compound 15, 1-(6,7-dihydro-5H-benzo[6,7]cyclohepta[1,2-c]pyridazin-3-yl)-N^5-(1(2H)-oxo-3,4,5,6-tetrahydrobenzo[c]azocin-9-yl)-1H-1,2,4-triazole-3,5-diamine], for which the IC50 (compound of formula (Ib), Table 2) was 1 to 10 µM.
